Laboratory results published in patent publication US5116851A, “Pharmaceutical composition and method for treating cardiovascular diseases using substituted anilides and sulfonamides” (E. R. Squibb & Sons, Inc., priority 1990, dated 1992).
Structures can show the parent of a compound that is named as a salt.

Columns and labels:
[1] = tested on: Ischemic and Nonischemic Isolated Rat Heart; assay: Isolated perfused rat heart (Langendorff), global ischemia/reperfusion: cardiac function, flow and LDH release; set-up: species or system rat (male Sprague-Dawley); FLOW (coronary blood flow): unit not given here; conditions: for LDH (Lactate Dehydrogenase Release): Postischemia, cumulative over 30 min reperfusion, per g preischemia heart weight, lower = greater cardioprotection; for LDH/DP: ratio of cardioprotection to cardiodepression, lower = greater selectivity
Method: Lactate dehydrogenase is an enzyme released in the heart during an ischemic event and is an index of cardiac cell necrosis. In the Grover et al. model, this is measured during reperfusion and an agent which provides for lower release levels of LDH is considered to offer greater cardioprotection since lower LDH indicates a smaller infarct size. Cardiac function is determined using the double product (DP) of heart rate times the left ventricular developed pressure (LVDP) divided by 1,000.
The lower the value for DP before ischemia for a given agent, the more cardiodepressant it is considered to be.
Male Sprague-Dawley rats (450-550 g) were used in all experiments. The rats were anesthetized using 30 mg/kg sodium pentobarbital (i.p.). They were intubated and then treated with i.v. heparin (1000 U/kg). While being mechanically ventilated, their hearts were perfused in situ via retrograde cannulation of the aorta. The hearts were then excised and quickly moved to a Langendorff apparatus where they were perfused with Krebs-Henseleit bicarbonate buffer (112 mM NaCl, 5 mM KCl, 1.2 mMMg SO4, 1 mM KH2 PO4, 1.25 mM CaCl2, 11.5 mM dextrose, and 2 mM pyruvate) at a constant pressure (75 mm Hg). A water filled latex balloon attached to a metal cannula was then inserted into the left ventricle and connected to a Statham pressure transducer for measurement of left ventricular pressure. The hearts were allowed to equilibrate for 15 minutes at which time end diastolic pressure (EDP) was adjusted to 5 mm Hg and this was maintained for 5 minutes. Pre-ischemia or pre-drug function, heart rate and coronary blood flow (extracorporeal electromagnetic flow probe, Carolina Medical Electronics, King, N.C.) were then measured. Cardiac function was determined using the double product of heart rate (HR) times left ventricular developed pressure (LVDP) divided by 1,000.
All of these hearts were treated with their respective drugs or vehicle for ten minutes. At this time, post-drug cardiac function and flow were measured and then the hearts were made globally ischemic by shutting off the buffer perfusion. The ischemia was maintained for 25 minutes at which time reperfusion with nondrug treated buffer was instituted. Reperfusion was maintained for 30 minutes and at this time reperfusion function and flow were again determined.
At the end of the reperfusion period, the reperfusion buffer was sampled for cumulative LDH release as previously described. LDH release was expressed as U/g preischemia heart weight for the 30 minute collection period. LDH release is a sensitive index for loss of cell viability. Determination of the relationship between pre-ischemic, post-drug cardiac function was made by dividing the double product (HR ×LVDP/1000) by the cumulative LDH release.
All data were analyzed using a one way analysis of variance. Multiple comparisons were done using the Duncan procedure. All data are expressed as the mean±SE.
The pre-ischemia DP values are a measure of the cardiodepression of the drug on the healthy cardiac tissue.
The post-ischemia LDH values are a measure of the cardioprotection or anti-ischemic activity of the drug. In this case, lower values indicate greater anti-ischemic activity or greater cardioprotection.
The LDH/DP values are the ratio of cardioprotection to cardiodepression, the lower values indicating a greater selectivity for anti-ischemic activity.
The post-ischemia DP indicates cardiodepression after the ischemic episode and the lower DP values here are indicative of agents which still remained in the cardiac tissue for more than 30 minutes post ischemia. [drawing 16]

rabbit aorta = assay: Reduction of tone of rabbit aorta by high potassium (Vasc. Ca^++ Block); type: cell-based; conditions: Oryctolagus cuniculus; read-out: IC50 in reducing tone of rabbit aorta by high potassium (Vasc. Ca^++ Block)
Text: |(SAPA), in reducing maximum upstroke velocity (Vmax) |and in reducing tone of rabbit aorta by high potassium |(Vasc. Ca^++ Block)

[2] = tested on: isolated canine cardiac Purkinje fibers; assay: Calcium-dependent slow response action potential amplitude (SAPA), standard microelectrode techniques; type: cell-based; conditions: Canis lupus familiaris, read-out: IC50 in reducing slow response action potential amplitude (SAPA)
Method: The calcium channel blocking and sodium entry blocking activities of compounds of the present invention were tested using standard microelectrode techniques in isolated canine cardiac Purkinje fibers as reported in J. L. Bergey et al., "Antiarrhythmic, hemodynamic, and cardiac electrophysiological evaluation of N-(2,6-dimethylphenyl)-N'-[3-(1-methylethylamino)propyl]-urea), (Wy 42,362)", Arzneim -Forsch, 33:1258, 1983). […] Depression of this parameter indicates depression of calcium entry into cardiac tissue. […] Significant depression of the upstroke velocity (vmax) indicates the blocking of sodium entry into cardiac tissue.

[3] = Postischemia (30 min.), 1 μM, occlusion 25 minutes, reperfusion 30 minutes
[4] = Preischemia (Post Drug), 1 μM, lower = more cardiodepressant

SMILES | DP (Double Product, HR x LVDP / 1,000) [1, 3] | FLOW (coronary blood flow) [1, 3] | HR (Heart Rate) [1, 3] [beats/min] | LVDP (Left Ventricular Developed Pressure) [1, 3] [mmHg] | LDH (Lactate Dehydrogenase Release) ([1]; 1 μM) [U/g] | FLOW (coronary blood flow) ([1]; Preischemia (Post Drug), 1 μM) | HR (Heart Rate) ([1]; Preischemia (Post Drug), 1 μM) [beats/min] | LVDP (Left Ventricular Developed Pressure) ([1]; Preischemia (Post Drug), 1 μM) [mmHg] | DP (Double Product, HR x LVDP / 1,000) [1, 4] | LDH/DP ([1]; 1 μM) | cardioprotection compared with diltiazem ([1]; post-ischemia LDH, 1 μM) | IC50 (rabbit aorta) [nM] | IC50 [2] [nM] | ischemic selectivity among diltiazem, nifedipine and verapamil ([1]; Grover et al. methodology)
COc1cc(SCc2ccccc2)c(N(CCCN(C)C)C(=O)Cc2ccccc2)cc1OC [Example 8, N-[3-(Dimethylamino)propyl]-N-[4,5-dimethoxy-2-sulfonyl),[(phenylmethyl)thio]phenyl]benzeneacetamide, oxalate (1:1) salt] | 17 | 8 | 246 | 71 | 3.7 | 19 | 216 | 65 | 14 | 0.26 | – | – | – | –
COc1ccc(CSc2ccccc2N(CCCN(C)C)C(=O)Cc2ccccc2)cc1 [Example 2, N-[3-(Dimethylamino)propyl]-N-[2-[[(4-methoxyphenyl)methyl]thio]phenyl]benzeneacetamide, monohydrochloride] | 14 | 11 | 188 | 73 | 8.9 | 20 | 219 | 135 | 29 | 0.30 | – | – | – | –
COc1ccc(CSc2cc(Cl)ccc2N(CCCN(C)C)C(=O)Cc2ccccc2)cc1.Cl [Example 9, N-[3-(Dimethylamino)propyl]-N-[4-chloro-2-[[(4-methoxyphenyl)methyl]thio]phenyl]benzeneacetamide, monohydrochloride] | 11 | 9 | 214 | 52 | 8.2 | 18 | 226 | 126 | 29 | 0.29 | comparable to diltiazem in cardioprotection | – | – | –
CN(C)CCCN(C(=O)c1ccccc1)c1ccccc1SCc1ccccc1.Cl [Example 7, 2'-(Benzylthio)-N-[3-(dimethylamino)propyl]benzanilide, hydrochloride] | 15 | 8 | 220 | 72 | 6.7 | 11 | 218 | 132 | 29 | 0.24 | – | – | – | –
CN(C)CCCCN(C(=O)Cc1ccccc1)c1ccccc1SCc1ccccc1 [Example 5, N-[4-(Dimethylamino)butyl]-N-[2-[(phenylmethyl)thio]phenyl]benzeneacetamideoxalate (1:1) salt] | 10 | 11 | 180 | 51 | 16.5 | 15 | 253 | 115 | 29 | 0.57 | – | – | – | –
CN(C)CCCCN(C(=O)C=Cc1ccccc1)c1ccccc1SCc1ccccc1 [Example 24, N-[4-(Dimethylamino)butyl]-3-phenyl-N-[2-[(phenylmethyl)thio]phenyl]-2-propenamide, oxalate salt (1:1)] | – | – | – | – | – | – | – | – | – | – | – | 1200 | 2600 | –
COc1ccc([C@@H]2Sc3ccccc3N(CCN(C)C)C(=O)[C@@H]2OC(C)=O)cc1 [Diltiazem, reference compound] | 24 | 17 | 231 | 104 | 10 | 22 | 217 | 45 | 10 | 0.98 | – | – | – | greatest ischemic selectivity
CN(C)CCCN(C(=O)Cc1ccccc1)c1ccccc1OCc1ccccc1.O=C(O)C(=O)O [Example 6, N-[3-(Dimethylamino)propyl]-N-[2-(phenylmethoxy)phenyl]benzeneacetamide, oxalate salt (1:1)] | 20 | 10 | 222 | 89 | 5.7 | 15 | 230 | 113 | 26 | 0.22 | – | – | – | –
CN(C)CCN(C(=O)Cc1ccccc1)c1ccccc1SCc1ccccc1.Cl [Example 4, N-[2-(Dimethylamino)ethyl]-N-[2-[(phenylmethyl)thio]phenyl]benzeneacetamide, monohydrochloride] | 15 | 15 | 239 | 60 | 21 | 20 | 236 | 123 | 30 | 0.79 | – | – | – | –
